Test results taken from patent US6479050B1, “Trace element-rich additive, method for preparing same, preparation in which the additive is included and use thereof” (Innovi N.V., priority 1991, dated 2002).
Values joined by “and” are separate entries in the source; they are usually repeats but may differ in a detail not shown here. Equal values may be shown once.

What was measured:
glutathione-peroxidase = assay: In vivo effect of the additive on glutathione-peroxidase activity in plasma; set-up: species or system human
Description: In vivo effect to the additive according to the invention on the glutathione-peroxidase activity in plasma.
(§1) For three weeks a quantity of 3 microgrammes of Se in the form of the additive according to the invention was administered daily to a child suffering from Protein Lysine Intolerance (PLI).

[1] = Se content in plasma during supplementation; details: child with Protein Lysine Intolerance, additive 3 microgrammes Se daily for three weeks, selenite as second supplementation after 13 months, successive samples
Description: as §1

In the case of `O=[Se](O)O` [selenite], the “glutathione peroxidase activity in the plasma (change during supplementation, in words)” value (glutathione-peroxidase; child with PLI, during supplementation) is reported as “no increase”, the glutathione-peroxidase activity (glutathione-peroxidase; plasma, child with Protein Lysine Intolerance, additive 3 microgrammes Se daily for three weeks, selenite as second supplementation after 13 months, successive samples) is reported as 0.13 U/ml and 0.12 U/ml and the Se-content [1] is reported as 20 ng/mL and 22 ng/mL and 24 ng/mL and 23 ng/mL.
